Experiment: Dilution stability of epothilone D formulations, visual appearance
Assay type: physicochemical
Parameters: key: remained clear; ppt: precipitation; xtal: crystallization
Details: for Visual Appearance RODI Dilution 0 h / Visual Appearance RODI Dilution 12 h / Visual Appearance RODI Dilution 24 h / Visual Appearance RODI Dilution 36 h / Visual Appearance RODI Dilution 48 h: 1:10 into RODI water; for Visual Appearance Initial: undiluted
Experimental: The dilution stability of epothilone D formulations at 8-20 mg/mL in various formulations was examined. A stock solution of epothilone D (100 mg/mL) was prepared in ethanol. Epothilone D formulations were prepared as listed in the following tables by addition of the requisite amount of ethanol, PEG400, 10% Tween® 80, and either propylene glycol or glycerol to the appropriate volume of the epothilone D stock solution. The solubility of epothilone D in each vial was observed visually following gentle swirling. Each formulation was syringe filtered through a 0.2 micron PVDF filter. Each formulation was subsequently diluted 1:8, 1:10, or 1:12 in reverse osmosis deionized water (RODI) or 0.9% saline. Visual observations were taken upon preparation, upon dilution, and both 1 and 24 hours after incubation at ambient temperature.
The dilution stability up to 48 hours post-dilution was examined for the above formulations containg 8-11 mg/mL of epothilone D after 1:10 dilution into either RODI water or 0.45% saline, as summarized in Tables 12 and 13 below.

[1] = 8 mg/mL epo D in 10% Tween 80, 50% ethanol, 30% PEG400, 10% propylene glycol
[2] = 8 mg/mL epo D in 10% Tween 80, 50% ethanol, 30% PEG400, 10% propylene glycol, 0.9% saline
[3] = 8 mg/mL epo D in 10% Tween 80, 50% ethanol, 30% PEG400, 10% propylene glycol, 1:10 into 0.45% saline
[4] = 8 mg/mL epo D in 10% Tween 80, 60% ethanol, 20% PEG400, 10% glycerol
[5] = 8 mg/mL epo D in 10% Tween 80, 60% ethanol, 20% PEG400, 10% glycerol, 0.9% saline
[6] = 8 mg/mL epo D in 10% Tween 80, 60% ethanol, 20% PEG400, 10% glycerol, 1:10 into 0.45% saline
[7] = 9 mg/mL epo D in 10% Tween 80, 50% ethanol, 30% PEG400, 10% propylene glycol, 1:10 into 0.45% saline
[8] = 9 mg/mL epo D in 10% Tween 80, 50% ethanol, 30% PEG400, 10% propylene glycol
[9] = 9 mg/mL epo D in 10% Tween 80, 60% ethanol, 20% PEG400, 10% glycerol, 1:10 into 0.45% saline
[10] = 9 mg/mL epo D in 10% Tween 80, 60% ethanol, 20% PEG400, 10% glycerol
[11] = 10 mg/mL epo D in 10% Tween 80, 50% ethanol, 30% PEG400, 10% propylene glycol
[12] = 10 mg/mL epo D in 10% Tween 80, 50% ethanol, 30% PEG400, 10% propylene glycol, 0.9% saline
[13] = 10 mg/mL epo D in 10% Tween 80, 50% ethanol, 30% PEG400, 10% propylene glycol, 1:10 into 0.45% saline
[14] = 10 mg/mL epo D in 10% Tween 80, 60% ethanol, 20% PEG400, 10% glycerol
[15] = 10 mg/mL epo D in 10% Tween 80, 60% ethanol, 20% PEG400, 10% glycerol, 0.9% saline
[16] = 10 mg/mL epo D in 10% Tween 80, 60% ethanol, 20% PEG400, 10% glycerol, 1:10 into 0.45% saline
[17] = 11 mg/mL epo D in 10% Tween 80, 50% ethanol, 30% PEG400, 10% propylene glycol, 1:10 into 0.45% saline
[18] = 11 mg/mL epo D in 10% Tween 80, 50% ethanol, 30% PEG400, 10% propylene glycol
[19] = 11 mg/mL epo D in 10% Tween 80, 60% ethanol, 20% PEG400, 10% glycerol, 1:10 into 0.45% saline
[20] = 11 mg/mL epo D in 10% Tween 80, 60% ethanol, 20% PEG400, 10% glycerol
[21] = 12 mg/mL epo D in 10% Tween 80, 50% ethanol, 30% PEG400, 10% propylene glycol
[22] = 12 mg/mL epo D in 10% Tween 80, 50% ethanol, 30% PEG400, 10% propylene glycol, 0.9% saline
[23] = 12 mg/mL epo D in 10% Tween 80, 60% ethanol, 20% PEG400, 10% glycerol
[24] = 12 mg/mL epo D in 10% Tween 80, 60% ethanol, 20% PEG400, 10% glycerol, 0.9% saline
[25] = 16 mg/mL epo D in 10% Tween 80, 50% ethanol, 30% PEG400, 10% propylene glycol
[26] = 16 mg/mL epo D in 10% Tween 80, 50% ethanol, 30% PEG400, 10% propylene glycol, 0.9% saline
[27] = 16 mg/mL epo D in 10% Tween 80, 60% ethanol, 20% PEG400, 10% glycerol
[28] = 16 mg/mL epo D in 10% Tween 80, 60% ethanol, 20% PEG400, 10% glycerol, 0.9% saline
[29] = 20 mg/mL epo D in 10% Tween 80, 50% ethanol, 30% PEG400, 10% propylene glycol
[30] = 20 mg/mL epo D in 10% Tween 80, 50% ethanol, 30% PEG400, 10% propylene glycol, 0.9% saline
[31] = 20 mg/mL epo D in 10% Tween 80, 60% ethanol, 20% PEG400, 10% glycerol
[32] = 20 mg/mL epo D in 10% Tween 80, 60% ethanol, 20% PEG400, 10% glycerol, 0.9% saline
[33] = Table 12: 10 mg/mL epo D in 10% Tween 80, 60% ethanol, 20% PEG400, 10% glycerol
[34] = Table 13: 10 mg/mL epo D in 10% Tween 80, 50% ethanol, 30% PEG400, 10% propylene glycol

## C/C1=C/CC(/C(C)=C/c2csc(C)n2)OC(=O)C[C@H](O)C(C)(C)C(=O)[C@H](C)[C@@H](O)[C@@H](C)CCC1 (some centres unmarked) [Epothilone D, Desoxyepothilone B]
[1]
  Visual Appearance RODI Dilution 1:08 0 h: clear
  Visual Appearance RODI Dilution 1:08 24 h: clear
  Visual Appearance RODI Dilution 1:10 0 h: clear
  Visual Appearance RODI Dilution 1:10 24 h: clear
  Visual Appearance RODI Dilution 1:12 0 h: clear
  Visual Appearance RODI Dilution 1:12 24 h: clear
  Visual Appearance RODI Dilution 0 h: clear
  Visual Appearance RODI Dilution 12 h: clear
  Visual Appearance RODI Dilution 24 h: clear
  Visual Appearance RODI Dilution 36 h: clear
  Visual Appearance RODI Dilution 48 h: clear
  Visual Appearance Initial: clear
[2]
  Visual Appearance Saline Dilution 1:08 1 h: xtal
  Visual Appearance Saline Dilution 1:10 1 h: xtal
  Visual Appearance Saline Dilution 1:12 1 h: clear
  Visual Appearance Saline Dilution 1:12 24 h: xtal
[3]
  Visual Appearance Saline Dilution 0 h: clear
  Visual Appearance Saline Dilution 12 h: xtal
[4]
  Visual Appearance RODI Dilution 1:08 0 h: clear
  Visual Appearance RODI Dilution 1:08 24 h: clear
  Visual Appearance RODI Dilution 1:10 0 h: clear
  Visual Appearance RODI Dilution 1:10 24 h: clear
  Visual Appearance RODI Dilution 1:12 0 h: clear
  Visual Appearance RODI Dilution 1:12 24 h: clear
  Visual Appearance RODI Dilution 0 h: clear
  Visual Appearance RODI Dilution 12 h: clear
  Visual Appearance RODI Dilution 24 h: clear
  Visual Appearance RODI Dilution 36 h: xtal
  Visual Appearance Initial: clear
[5]
  Visual Appearance Saline Dilution 1:08 1 h: clear
  Visual Appearance Saline Dilution 1:08 24 h: xtal
  Visual Appearance Saline Dilution 1:10 1 h: xtal
  Visual Appearance Saline Dilution 1:12 1 h: xtal
[6]
  Visual Appearance Saline Dilution 0 h: clear
  Visual Appearance Saline Dilution 12 h: xtal
[7]
  Visual Appearance Saline Dilution 0 h: clear
  Visual Appearance Saline Dilution 12 h: xtal
[8]
  Visual Appearance RODI Dilution 0 h: clear
  Visual Appearance RODI Dilution 12 h: clear
  Visual Appearance RODI Dilution 24 h: clear
  Visual Appearance RODI Dilution 36 h: clear
  Visual Appearance RODI Dilution 48 h: clear
[9]
  Visual Appearance Saline Dilution 0 h: clear
  Visual Appearance Saline Dilution 12 h: xtal
[10]
  Visual Appearance RODI Dilution 0 h: clear
  Visual Appearance RODI Dilution 12 h: clear
  Visual Appearance RODI Dilution 24 h: clear
  Visual Appearance RODI Dilution 36 h: xtal
[11]
  Visual Appearance RODI Dilution 1:08 0 h: clear
  Visual Appearance RODI Dilution 1:08 24 h: clear
  Visual Appearance RODI Dilution 1:10 0 h: clear
  Visual Appearance RODI Dilution 1:10 24 h: clear
  Visual Appearance RODI Dilution 1:12 0 h: clear
  Visual Appearance RODI Dilution 1:12 24 h: clear
  Visual Appearance Initial: clear
[12]
  Visual Appearance Saline Dilution 1:08 1 h: xtal
  Visual Appearance Saline Dilution 1:10 1 h: xtal
  Visual Appearance Saline Dilution 1:12 1 h: xtal
[13]
  Visual Appearance Saline Dilution 0 h: clear
  Visual Appearance Saline Dilution 12 h: clear
  Visual Appearance Saline Dilution 24 h: clear
  Visual Appearance Saline Dilution 36 h: xtal
[14]
  Visual Appearance RODI Dilution 1:08 0 h: clear
  Visual Appearance RODI Dilution 1:08 24 h: clear
  Visual Appearance RODI Dilution 1:10 0 h: clear
  Visual Appearance RODI Dilution 1:10 24 h: clear
  Visual Appearance RODI Dilution 1:12 0 h: clear
  Visual Appearance RODI Dilution 1:12 24 h: clear
  Visual Appearance Initial: clear
[15]
  Visual Appearance Saline Dilution 1:08 1 h: clear
  Visual Appearance Saline Dilution 1:08 24 h: xtal
  Visual Appearance Saline Dilution 1:10 1 h: xtal
  Visual Appearance Saline Dilution 1:12 1 h: xtal
[16]
  Visual Appearance Saline Dilution 0 h: clear
  Visual Appearance Saline Dilution 12 h: xtal
[17]
  Visual Appearance Saline Dilution 0 h: clear
  Visual Appearance Saline Dilution 12 h: xtal
[18]
  Visual Appearance RODI Dilution 0 h: clear
  Visual Appearance RODI Dilution 12 h: xtal
  Visual Appearance Initial: clear
[19]
  Visual Appearance Saline Dilution 0 h: clear
  Visual Appearance Saline Dilution 12 h: xtal
[20]
  Visual Appearance RODI Dilution 0 h: clear
  Visual Appearance RODI Dilution 12 h: xtal
  Visual Appearance Initial: clear
[21]
  Visual Appearance RODI Dilution 1:08 0 h: clear
  Visual Appearance RODI Dilution 1:08 24 h: clear
  Visual Appearance RODI Dilution 1:10 0 h: clear
  Visual Appearance RODI Dilution 1:10 24 h: clear
  Visual Appearance RODI Dilution 1:12 0 h: clear
  Visual Appearance RODI Dilution 1:12 24 h: xtal
  Visual Appearance Initial: clear
[22]
  Visual Appearance Saline Dilution 1:08 1 h: xtal
  Visual Appearance Saline Dilution 1:10 1 h: xtal
  Visual Appearance Saline Dilution 1:12 1 h: xtal
[23]
  Visual Appearance RODI Dilution 1:08 0 h: clear
  Visual Appearance RODI Dilution 1:08 24 h: clear
  Visual Appearance RODI Dilution 1:10 0 h: clear
  Visual Appearance RODI Dilution 1:10 24 h: clear
  Visual Appearance RODI Dilution 1:12 0 h: clear
  Visual Appearance RODI Dilution 1:12 24 h: xtal
  Visual Appearance Initial: clear
[24]
  Visual Appearance Saline Dilution 1:08 1 h: xtal
  Visual Appearance Saline Dilution 1:10 1 h: xtal
  Visual Appearance Saline Dilution 1:12 1 h: xtal
[25]
  Visual Appearance RODI Dilution 1:08 0 h: ppt
  Visual Appearance RODI Dilution 1:10 0 h: ppt
  Visual Appearance RODI Dilution 1:12 0 h: ppt
  Visual Appearance Initial: clear
[26]
  Visual Appearance Saline Dilution 1:08 1 h: ppt
  Visual Appearance Saline Dilution 1:10 1 h: ppt
  Visual Appearance Saline Dilution 1:12 1 h: ppt
[27]
  Visual Appearance RODI Dilution 1:08 0 h: ppt
  Visual Appearance RODI Dilution 1:10 0 h: ppt
  Visual Appearance RODI Dilution 1:12 0 h: ppt
  Visual Appearance Initial: clear
[28]
  Visual Appearance Saline Dilution 1:08 1 h: ppt
  Visual Appearance Saline Dilution 1:10 1 h: ppt
  Visual Appearance Saline Dilution 1:12 1 h: ppt
[29]
  Visual Appearance RODI Dilution 1:08 0 h: ppt
  Visual Appearance RODI Dilution 1:10 0 h: ppt
  Visual Appearance RODI Dilution 1:12 0 h: ppt
  Visual Appearance Initial: clear
[30]
  Visual Appearance Saline Dilution 1:08 1 h: ppt
  Visual Appearance Saline Dilution 1:10 1 h: ppt
  Visual Appearance Saline Dilution 1:12 1 h: ppt
[31]
  Visual Appearance RODI Dilution 1:08 0 h: ppt
  Visual Appearance RODI Dilution 1:10 0 h: ppt
  Visual Appearance RODI Dilution 1:12 0 h: ppt
  Visual Appearance Initial: clear
[32]
  Visual Appearance Saline Dilution 1:08 1 h: ppt
  Visual Appearance Saline Dilution 1:10 1 h: ppt
  Visual Appearance Saline Dilution 1:12 1 h: ppt
Table 12: 8 mg/mL epo D in 10% Tween 80, 60% ethanol, 20% PEG400, 10% glycerol
  Visual Appearance Initial: clear
Table 12: 9 mg/mL epo D in 10% Tween 80, 60% ethanol, 20% PEG400, 10% glycerol
  Visual Appearance Initial: clear
[33]
  Visual Appearance RODI Dilution 0 h: clear
  Visual Appearance RODI Dilution 12 h: clear
  Visual Appearance RODI Dilution 24 h: clear
  Visual Appearance RODI Dilution 36 h: clear
  Visual Appearance RODI Dilution 48 h: xtal
  Visual Appearance Initial: clear
Table 13: 8 mg/mL epo D in 10% Tween 80, 50% ethanol, 30% PEG400, 10% propylene glycol
  Visual Appearance Initial: clear
Table 13: 9 mg/mL epo D in 10% Tween 80, 50% ethanol, 30% PEG400, 10% propylene glycol
  Visual Appearance Initial: clear
[34]
  Visual Appearance RODI Dilution 0 h: clear
  Visual Appearance RODI Dilution 12 h: clear
  Visual Appearance RODI Dilution 24 h: clear
  Visual Appearance RODI Dilution 36 h: clear
  Visual Appearance RODI Dilution 48 h: clear
  Visual Appearance Initial: clear
